Read-outs that look alike come from different tables or passages of the source.
Key:
GPb = tested on: GPb; parameters: method as in PMID 16317787; settings: direction of glycogen breakdown; cited from earlier work
rabbit mGPa [1] = target: T1, rabbit mGPa (Oryctolagus cuniculus, UniProt P00489); assay: In vitro glycogen phosphorylase inhibition assay (direction of glycogen synthesis, colorimetric phosphate); format: biochemical; settings: no glucose; mean ± SEM; read-out: GPa IC50 value
T1 construct: purchased Creative Enzymes
T1 sequence (P00489 2-843 limits assumed): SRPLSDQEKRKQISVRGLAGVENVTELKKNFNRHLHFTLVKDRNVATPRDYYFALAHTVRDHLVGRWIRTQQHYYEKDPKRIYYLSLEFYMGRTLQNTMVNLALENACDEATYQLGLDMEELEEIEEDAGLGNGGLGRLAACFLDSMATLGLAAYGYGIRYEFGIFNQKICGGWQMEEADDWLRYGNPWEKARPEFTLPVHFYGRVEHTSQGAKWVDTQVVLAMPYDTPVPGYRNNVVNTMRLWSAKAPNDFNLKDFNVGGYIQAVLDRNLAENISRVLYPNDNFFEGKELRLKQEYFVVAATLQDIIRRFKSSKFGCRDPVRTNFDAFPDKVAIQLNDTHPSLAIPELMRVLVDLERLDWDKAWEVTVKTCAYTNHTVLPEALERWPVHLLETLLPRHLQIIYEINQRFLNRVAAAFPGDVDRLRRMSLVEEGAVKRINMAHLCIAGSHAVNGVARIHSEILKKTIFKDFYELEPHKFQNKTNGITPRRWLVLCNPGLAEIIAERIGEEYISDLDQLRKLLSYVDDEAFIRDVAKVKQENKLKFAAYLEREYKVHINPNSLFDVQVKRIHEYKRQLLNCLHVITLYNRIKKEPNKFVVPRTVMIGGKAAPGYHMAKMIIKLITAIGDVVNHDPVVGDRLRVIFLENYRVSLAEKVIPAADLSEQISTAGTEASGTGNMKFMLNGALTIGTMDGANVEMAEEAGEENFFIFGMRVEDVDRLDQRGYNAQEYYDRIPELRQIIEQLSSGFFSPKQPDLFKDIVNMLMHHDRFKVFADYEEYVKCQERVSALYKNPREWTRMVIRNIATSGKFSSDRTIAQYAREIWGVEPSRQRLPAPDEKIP
Procedure: The GP activity was measured using a previously optimized and validated method. In each assay, GP activity was measured by the direction of glycogen synthesis, which involved monitoring the colorimetric determination of inorganic phosphate deriving from glucose 1-phosphate. […] The enzymatic reaction was then started with the addition of a 50 mM HEPES buffer solution, with a pH of 7.2, containing 100 mM KCl, 2.5 mM MgCl2, 0.25 mM glucose 1-phosphate, and 0.25 mg/mL glycogen incubated for 30 min at 37 °C. After this incubation time, the reagent for colorimetric phosphate quantitation, BIOMOL® Green, was added to the reaction mixture. The reaction was monitored in a microplate reader (Synergy HT, BioTek Instruments, Winooski, VT, USA) at 620 nm.

rabbit mGPa [2] = target: T1, rabbit mGPa; parameters: method as in PMID 16317787; settings: direction of glycogen breakdown; cited from earlier work
GP = tested on: GP; parameters: method as in PMID 18494482; settings: cited from earlier work
[3] = tested on: rabbit mGPa and mGPb, together with human lGPa; parameters: method as in PMID 32771768; settings: direction of glycogen synthesis; cited from earlier work
rabbit mGPa [4] = target: T1, rabbit mGPa; assay: In vitro effect of glucose on inhibitor potency (GPa inhibition with 0, 5, 10 mM glucose); format: biochemical; settings: mean ± SEM, read-out: GPa IC50 value
Procedure: The method was performed as described in Section 2.2, with slight modifications. […] The enzymatic reaction was then started with the addition of a 50 mM HEPES buffer solution with a pH of 7.2 containing 100 mM KCl, 2.5 mM MgCl2, 0.25 mM glucose 1-phosphate, and 0.25 mg/mL glycogen. This buffer was used without glucose, or it was enriched with 5 and 10 mM of glucose and was incubated for 30 min at 37 °C in the reaction mixture. After this incubation time, BIOMOL® Green was added, and the reaction was monitored in a microplate reader (Synergy HT, BioTek Instruments, Winooski, VT, USA) at 620 nm.

For `O=c1cc(-c2ccccc2)oc2cc(O)cc(O)c12` [Compound 38, Chrysin], the IC50 (GPb) is listed as 15.3 ± 1 µM, the IC50 (rabbit mGPa [1]) is listed as 19.3 ± 1.5 µM and the IC50 (rabbit mGPa [2]) is listed as 27.5 µM. The IC50 (GP) was > 200 µM, the “potency relative to flavonoid 45, quercetin” value [3] was ~10 fold and the IC50 (rabbit mGPa [4]; 0 mM of glucose) was 19.3 ± 1.5 µM. It also gave an IC50 (rabbit mGPa [4]; 5 mM of glucose) of 8.8 ± 0.8 µM and an IC50 (rabbit mGPa [4]; 10 mM of glucose) of 5.2 ± 0.3 µM.

From publication PMC8781192, “An In Silico and an In Vitro Inhibition Analysis of Glycogen Phosphorylase by Flavonoids, Styrylchromones, and Pyrazoles” (Nutrients, 2022)
